Assay results: patent US10174312B2 (priority 2014, dated 2019)
Read-outs that look alike come from different tables or passages of the source. Starred links: 1 amine or outer side, 2 acyl side, 3 side chain; linkers in the order of their positions; H or OH if unused. Positions of bridges follow the written chain, without caps; N, C: chain ends. Non-standard residues stand in square brackets, D forms with d. Residues, ends and D or L forms follow the SMILES beside them. Chains are numbered I, II in the order given. Actinocin(9to1) = Cc1c2oc3c(C)ccc(C(=O)[*:1])c3nc-2c(C(=O)[*:2])c(N)c1=O; NMeV = CN[C@H](C(=O)O)C(C)C; Sar = CNCC(=O)O

Experiments:
[1] = system: pool of the S. pombe heterozygous deletion strain; assay type: cell-based, Schizosaccharomyces pombe; conditions: for growth inhibition effect on the strain (sampling errors confirmed, FIG. 3): 20 generation subculture, expected vs sampled generation
Method: In the course of 10 generation sub-culture and 20 generation sub-culture, OD600 was measured to confirm the doubling time. Then, pool fitness by doubling time (PFDT) was calculated by the below mathematical formula 2. […] PFDT=doubling time of the pool not-treated with the drug/doubling time of the pool treated with the drug [Mathematical Formula 2]

[2] = system: S. pombe genome-wide heterozygous deletion strain; experiment: Chemical-genetic profile by DNA chip array (S. pombe compendium, DI-HI / ecDT screening); assay type: cell-based, Schizosaccharomyces pombe
Excerpt: To make the genetic compendium of S. pombe heterozygous deletion strain pool, DNA was separated from the strain by the conventional method, followed by chip-hybridization to quantify the growth of the strain (S. E. Pierce, E. L. Fung, D. F. Jaramillo, et al., Nat. Methods 3 (2006) 601-603).
Then, a short DNA barcode sequence in 20 bp long (named “TAG”) was inserted in the complementary region of the genomic DNA, followed by amplification with universal primers for the flanking sequence. The amount of the amplified TAG was judged by the growth of each strain, which was quantified by using the DNA chip (Affymetrix, USA) constructed with the complementary sequence of TAG.
The result of the quantitative DNA chip array was not modified by background correction, normalization, or perfect match (PM) and the mean value was used as raw intensity (Iraw). The parameter for preprocessing the raw intensity was calculated by DNA chip array according to the conventional method informed to those in the art. To calculate the minimum value of the comparative fitness by saturated intensity, modification was performed according to the below mathematical formula 3. The normalized constant was applied to each analysis based on the modified raw intensity. For the modification, chip array was repeated 5 times with the glycerol stock deletion strain pool and the mean value was obtained. The normalized final intensity was log 2-transformed for after analysis. Icorrected=Iraw×exp(−Irawα) [Mathematical Formula 3]
In the mathematical formula 3, ‘Icorrected’ indicates the modified intensity; ‘Iraw’ indicates the raw intensity; and ‘α’ indicates the variable of modification function calculated with UPTAG and DNATAG which are 0.0003412759 and 0.0002767581 respectively.
Error model was calculated according to the conventional method in order to calculate the fitness score of the drug treated S. pombe heterozygous deletion strain.
The compendium of the drug competitive growth experiment was used as the reference set. […] N and the line of drugs of 1 . . . j . . . M. The average and variable of the reference set of each strain were calculated by the below mathematical formula 4.
Z-scores and p-values of the 4400 heterozygous deletion strains were obtained with 47 drugs. The amount of each strain was represented by UPTAG and DNTAG inserted in the upstream and the downstream of the gene that had been eliminated from each strain. To investigate the significance of p-value presenting the detect of the growth in the drug treated strain, the expected intensity of UPTAG and DNTAG in the strain was calculated by the mathematical formula 5. From the mean value thereof, Z-score presenting the statistical distance was obtained. The obtained Z-score was applied to error function or standard normal distribution according to the mathematical formula 6, and the growth detect of each strain was judged by p-value in the range of 0˜1.
The growth defect by the presence or absence of each drug was investigated by the method illustrated in the schematic diagram of FIG. 5 to judge whether the heterozygous deletion gene was haplo-insufficient (HI) or haplo-sufficient (HS).

[3] = system: S. cerevisiae heterozygous deletion strain library; conditions: cited from earlier work
[4] = each drug at its Dose(M) of Table 2, 25° C.
[5] = each drug at its Dose(M) of Table 2, 25° C., PFDT = doubling time untreated pool / treated pool
[6] = second, lower dose 1.50E−08 M (Drug ID 67.2, 71.2)

Molecule: Cc1c2oc3c(C)ccc(C(=O)N[C@@H]4C(=O)N[C@H](C(C)C)C(=O)N5CCC[C@H]5C(=O)N(C)CC(=O)N(C)[C@@H](C(C)C)C(=O)O[C@@H]4C)c3nc-2c(C(=O)N[C@@H]2C(=O)N[C@H](C(C)C)C(=O)N3CCC[C@H]3C(=O)N(C)CC(=O)N(C)[C@@H](C(C)C)C(=O)O[C@@H]2C)c(N)c1=O [Actinomycin D] (I: T[dV]P[Sar][NMeV] / II: T[dV]P[Sar][NMeV]; ester I:1-I:C, II:1-II:C; linker I:N-II:N via Actinocin(9to1))
- growth inhibition effect on the strain (sampling errors confirmed, FIG. 3) [1]: growth inhibition effect
- PF2DT: PFDT of the sample obtained from 20 generation subculture [1, 4]: 0.709
- PF1DT: PFDT of the sample obtained from 10 generation subculture [1, 5]: 0.650

Molecule: C[C@H]1CCC/C=C/[C@@H]2C[C@H](O)C[C@H]2[C@H](O)/C=C/C(=O)O1 [Brefeldin A]
- PF2DT: PFDT of the sample obtained from 20 generation subculture [1, 4]: 0.986
- PF1DT: PFDT of the sample obtained from 10 generation subculture [1, 5]: 0.973

Molecule: Clc1ccccc1C(c1ccccc1)(c1ccccc1)n1ccnc1 [Clotrimazole]
- −log (p) (Spo) ([2]; gene erg11, dose 0.1 μM): −13.15

Molecule: C=C1[C@@H](C)[C@H]2[C@H](Cc3ccccc3)NC(=O)[C@]23OC(=O)/C=C/[C@H](O)CCC[C@@H](C)C/C=C/[C@H]3[C@@H]1O [Cytochalasin B]
- PF2DT: PFDT of the sample obtained from 20 generation subculture [1, 4]: 0.785
- PF1DT: PFDT of the sample obtained from 10 generation subculture [1, 5]: 0.954

Molecule: COc1ccc([C@@H]2Sc3ccccc3N(CCN(C)C)C(=O)[C@@H]2OC(C)=O)cc1.Cl [Dilitiazem hydrochloride]
- PF2DT: PFDT of the sample obtained from 20 generation subculture [1, 4]: 0.890
- PF1DT: PFDT of the sample obtained from 10 generation subculture [1, 5]: 0.896

Molecule: OCCN(CCO)c1nc(N2CCCCC2)c2nc(N(CCO)CCO)nc(N3CCCCC3)c2n1 [Dipyridamole]
- growth inhibition effect on the strain (sampling errors confirmed, FIG. 3) [1]: growth inhibition effect

Molecule: COc1cccc2c1C(=O)c1c(O)c3c(c(O)c1C2=O)C[C@@](O)(C(=O)CO)C[C@@H]3O[C@H]1C[C@H](N)[C@H](O)[C@H](C)O1 [Doxorubicin]
- −log (p) (Spo) ([2]; gene rpa2, dose 24 μM): −15.09
- −log (p) (Spo) ([2]; gene vma1, dose 24 μM): −28.26
- −log (p) (Spo) ([2]; gene vma7, dose 24 μM): −6.287
- −log (p) (Sce) ([3]; gene RPA135, dose 62.5): −6.279
- −log (p) (Sce) ([3]; gene TFP1, dose 62.5): −8.374
- −log (p) (Sce) ([3]; gene VMA7, dose 62.5): −28.85

Molecule: CCCCOc1ccc(C(=O)CCN2CCCCC2)cc1 [Dyclonine]
- −log (p) (Spo) ([2]; gene SPAC22F8.08, dose 68 μM): −12.19
- −log (p) (Spo) ([2]; gene SPCC1450.10c, dose 68 μM): −6.928
- −log (p) (Spo) ([2]; gene rpn12, dose 68 μM): −40.98
- −log (p) (Sce) ([3]; gene NAR1, dose 500): −4.84
- −log (p) (Sce) ([3]; gene RPN12, dose 500): −4.338
- −log (p) (Sce) ([3]; gene SEC24, dose 500): −6.632
- growth inhibition effect on the strain (sampling errors confirmed, FIG. 3) [1]: growth inhibition effect

Molecule: CC[C@H]1OC(=O)[C@H](C)[C@@H](O[C@H]2C[C@@](C)(OC)[C@@H](O)[C@H](C)O2)[C@H](C)[C@@H](O[C@@H]2O[C@H](C)C[C@H](N(C)C)[C@H]2O)[C@](C)(O)C[C@@H](C)C(=O)[C@H](C)[C@@H](O)[C@]1(C)O [Erythromycin]
- −log (p) (Spo) ([2]; gene SPAC688.09, dose 250 μM): −42.17
- −log (p) (Sce) ([3]; gene RIM2, dose 2.5 mg/ml): −4.63

Molecule: O=C(CCCN1CCC(O)(c2ccc(Cl)cc2)CC1)c1ccc(F)cc1 [Haloperidol]
- −log (p) (Spo) ([2]; gene fet5, dose 88.3 μM): −4.402
- −log (p) (Sce) ([3]; gene YLR243W, dose 125): −7.301

Molecule: CN(Cc1cnc2nc(N)nc(N)c2n1)c1ccc(C(=O)N[C@@H](CCC(=O)O)C(=O)O)cc1 [Methotrexate]
- −log (p) (Spo) ([2]; gene ssr2, dose 500 μM): −4.28
- −log (p) (Sce) ([3]; gene RSC8, dose 250): −4.275

Molecule: CO[C@@]12[C@H](COC(N)=O)C3=C(C(=O)C(C)=C(N)C3=O)N1C[C@@H]1N[C@@H]12 [Mitomycin C]
- −log (p) (Spo) ([2]; gene cdc10, dose 80 μM): −6.16
- −log (p) (Spo) ([2]; gene snf21, dose 80 μM): −4.022
- −log (p) (Sce) ([3]; gene SPC105, dose 1000): −14.52
- −log (p) (Sce) ([3]; gene STH1, dose 1000): −5.49
- −log (p) (Sce) ([3]; gene SWI6, dose 1000): −5.228
- PF2DT: PFDT of the sample obtained from 20 generation subculture [1, 4]: 0.756
- PF1DT: PFDT of the sample obtained from 10 generation subculture [1, 5]: 0.840

Molecule: CN(C/C=C/C#CC(C)(C)C)Cc1cccc2ccccc12 [Terbinafine]
- −log (p) (Spo) ([2]; S. pombe gene not printed (ortholog of RRP1), dose 0.03 μM): −6.1
- −log (p) (Spo) ([2]; gene erg1, dose 0.015 μM): −24.83
- −log (p) (Spo) ([2]; gene erg1, dose 0.03 μM): −49.77
- −log (p) (Sce) ([3]; gene ERG1, dose 2.5 ug/ml): −80.59
- −log (p) (Sce) ([3]; gene RRP1, dose 7.2 μM): −4.515

Molecule: Cn1c(=O)c2[nH]cnc2n(C)c1=O [Theophylline anhydrous]
- PF2DT: PFDT of the sample obtained from 20 generation subculture [1, 4]: 0.924
- PF1DT: PFDT of the sample obtained from 10 generation subculture [1, 5]: 0.887

Molecule: Tunicamycin
- −log (p) (Spo) ([2]; gene gpt2 heterozygous deletion, dose 0.03125 μM): −4.976
- −log (p) (Sce) ([3]; gene ALG7, dose 0.015 μM): −5.227
- −log (p) (Sce) ([3]; gene ALG7, dose 150 ng/mL): −24
- PF2DT: PFDT of the sample obtained from 20 generation subculture [1, 4]: 1.027
- PF1DT: PFDT of the sample obtained from 10 generation subculture [1, 5]: 0.935
- PF1DT: PFDT of the sample obtained from 10 generation subculture [1, 6]: 0.954
- PF2DT: PFDT of the sample obtained from 20 generation subculture [1, 6]: 1.007
